# Assay results published in US20060234378A1, “Molecular switch regulating neurogenesis” (The Salk Institute For Biological Studies, priority 2005, published 2006).
# Test system: NeuroD1 and NeuroD2 genes
# Test: RT PCR of NeuroD genes after TSA and 5AzaC treatment of adult hippocampal neural stem cells
# Type: cell-based, rat
# Details: 5 nM for 2 days
# Procedure: To determine whether either of these mechanisms contributed to repression of the NeuroD promoter, adult hippocampal neural stem cells were treated with either an HDAC inhibitor, trichostatin A (TSA), or with the de-methylation reagent 5′-aza-cytidine (5AzaC). Total RNA was extracted from cells that had been treated with 5 nM TSA for 2 days and with 3 μM 5AzaC for 4 days. RT PCR analysis was performed with specific primers for NeuroD1 (SEQ ID NOs:7 and 8) and NeuroD2 (SEQ ID NOs:9 and 10) genes and a control gene, GAPDH (SEQ ID NOs:3 and 4).
structure (smiles),measurement,setting,value
"CC(/C=C/C(=O)NO)=C\[C@@H](C)C(=O)c1ccc(N(C)C)cc1 [TSA, trichostatin A]",expression of GAPDH (control gene),,no effects
same,endogenous expression levels of mRNAs of NeuroD1 and NeuroD2,compared with untreated progenitor cultures,increased
